Laboratory results published in PubChem BioAssay AID248 (DTP/NCI, 2004).
Where “and” joins values, the source holds several entries; their conditions need not be identical. Equal entries are not always repeated. Inconclusive results and toxic doses are left out. No stated cut-off is given here; in the data, active means T/C of 150% or more; inactive means T/C below 125%.

System: L1210 leukemia ip in BDF1 mice, survival T/C
Test: NCI In Vivo Anticancer Drug Screen. Data for tumor model L1210 Leukemia (intraperitoneal) in B6D2F1 (BDF1) mice
Conditions: endpoint: mean survival time, higher = longer survival
Method in brief: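 Tumor cells were implanted, animals were treated, and survival was followed. The result divides the treated measurement by the vehicle-control measurement.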

[1] = dose: 100.0 mg/kg/injection, schedule: Q01DX001 (ip), vehicle: saline with Tween-80
[2] = dose: 200.0 mg/kg/injection, schedule: Q01DX001 (ip), vehicle: saline with Tween-80
[3] = dose: 400.0 mg/kg/injection, schedule: Q01DX001 (ip), vehicle: saline with Tween-80
[4] = dose: 100.0 mg/kg/injection, schedule: Q01DX001 (ip), vehicle: Klucel (hydroxypropylcellulose) (HPC)
[5] = dose: 200.0 mg/kg/injection, schedule: Q01DX001 (ip), vehicle: Klucel (hydroxypropylcellulose) (HPC)
[6] = dose: 400.0 mg/kg/injection, schedule: Q01DX001 (ip), vehicle: Klucel (hydroxypropylcellulose) (HPC)
[7] = dose: 100.0 mg/kg/injection, schedule: Q04DX003 (ip), vehicle: saline with Tween-80
[8] = dose: 200.0 mg/kg/injection, schedule: Q04DX003 (ip), vehicle: saline with Tween-80
[9] = dose: 400.0 mg/kg/injection, schedule: Q04DX003 (ip), vehicle: saline with Tween-80
[10] = dose: 100.0 mg/kg/injection, schedule: Q04DX003 (ip), vehicle: Klucel (hydroxypropylcellulose) (HPC)
[11] = dose: 200.0 mg/kg/injection, schedule: Q04DX003 (ip), vehicle: Klucel (hydroxypropylcellulose) (HPC)
[12] = dose: 100.0 mg/kg/injection, schedule: Q01DX001 (ip), vehicle: saline

Measured: T/C

CC(C)NCCC#N
inactive: dose: 100.0 mg/kg/injection, schedule: Q04DX003 (ip), vehicle: saline 104 % of control | dose: 200.0 mg/kg/injection, schedule: Q04DX003 (ip), vehicle: saline 111 % of control | dose: 400.0 mg/kg/injection, schedule: Q04DX003 (ip), vehicle: saline 108 % of control

O=C(O)CCSc1nc[nH]c1[N+](=O)[O-]
inactive: [1] 102 % of control | [2] 96 % of control | [3] 96 % of control

COC(=O)C12CCC(=O)CC1(O)c1ccc(OC)cc1CC2 (configuration not stated)
inactive: [4] 104 % of control | [5] 107 % of control | [6] 107 % of control

Cc1ccc(NC(=S)NC(=O)c2cccc([N+](=O)[O-])c2)cc1C
inactive: dose: 50.0 mg/kg/injection, schedule: Q01DX009 (ip), vehicle: saline with Tween-80 97 % of control and 112 % of control | [1] 92 % of control | dose: 100.0 mg/kg/injection, schedule: Q04DX002 (ip), vehicle: alcohol 93 % of control and 103 % of control | [7] 95 % of control | [2] 101 % of control | dose: 200.0 mg/kg/injection, schedule: Q04DX002 (ip), vehicle: alcohol 93 % of control and 103 % of control | [8] 94 % of control | [3] 98 % of control | dose: 400.0 mg/kg/injection, schedule: Q04DX002 (ip), vehicle: alcohol 93 % of control and 98 % of control | [9] 106 % of control

CCS(=O)(=O)C(S(C)(=O)=O)S(=O)(=O)C(C)C (configuration not stated)
inactive: [10] 92 % of control | [11] 96 % of control | dose: 400.0 mg/kg/injection, schedule: Q04DX003 (ip), vehicle: Klucel (hydroxypropylcellulose) (HPC) 89 % of control

C=CCc1ccc(O)c(OC)c1
inactive: dose: 100.0 mg/kg/injection, schedule: Q04DX002 (ip), vehicle: saline + alcohol 108 % of control | dose: 200.0 mg/kg/injection, schedule: Q04DX002 (ip), vehicle: saline + alcohol 101 % of control | dose: 400.0 mg/kg/injection, schedule: Q04DX002 (ip), vehicle: saline + alcohol 97 % of control

Cc1cccc(NC(=O)NCC(=O)NNC(=O)Nc2cc([N+](=O)[O-])ccc2C)n1
inactive: dose: 50.0 mg/kg/injection, schedule: Q01DX009 (ip), vehicle: Klucel (hydroxypropylcellulose) (HPC) 100 % of control | dose: 100.0 mg/kg/injection, schedule: Q01DX009 (ip), vehicle: Klucel (hydroxypropylcellulose) (HPC) 89 % of control | dose: 200.0 mg/kg/injection, schedule: Q01DX009 (ip), vehicle: Klucel (hydroxypropylcellulose) (HPC) 88 % of control

CN1CCN(c2c3c(nc4ccccc24)CCCC3)CC1
inactive: [12] 96 % of control

COC1OC2COC(c3ccccc3)OC2C(O)C1OS(=O)(=O)c1ccc(C)cc1 (configuration not stated)
inactive: [7] 87 % of control | [8] 87 % of control

COc1ccc(C(=O)c2cccs2)cc1
inactive: dose: 50.0 mg/kg/injection, schedule: Q01DX009 (ip), vehicle: saline sonified 101 % of control | dose: 100.0 mg/kg/injection, schedule: Q01DX009 (ip), vehicle: saline sonified 104 % of control | [10] 97 % of control | dose: 200.0 mg/kg/injection, schedule: Q01DX009 (ip), vehicle: saline sonified 102 % of control | [11] 94 % of control

CCOP(=O)(OCC)/C(=C\c1ccccc1)C(=O)c1ccccc1
inactive: dose: 25.0 mg/kg/injection, schedule: Q04DX003 (ip), vehicle: Klucel (hydroxypropylcellulose) (HPC) 87 % of control | dose: 50.0 mg/kg/injection, schedule: Q04DX003 (ip), vehicle: Klucel (hydroxypropylcellulose) (HPC) 87 % of control | [4] 107 % of control | [10] 90 % of control | [5] 98 % of control | [6] 106 % of control

O=C1CCCCCC1c1ccccc1 (configuration not stated)
inactive: [7] 98 % of control | [8] 96 % of control | [9] 106 % of control

Cc1c2cnccc2c(C)c2c1c1ccccc1n2CCCN
inactive: dose: 6.25 mg/kg/injection, schedule: Q04DX003 (ip), vehicle: saline 97 % of control | dose: 12.5 mg/kg/injection, schedule: Q04DX003 (ip), vehicle: saline 97 % of control | dose: 25.0 mg/kg/injection, schedule: Q01DX001 (oral), vehicle: saline 96 % of control | dose: 25.0 mg/kg/injection, schedule: Q04DX003 (ip), vehicle: saline 89 % of control | dose: 50.0 mg/kg/injection, schedule: Q01DX001 (oral), vehicle: saline 100 % of control | dose: 75.0 mg/kg/injection, schedule: Q01DX001 (oral), vehicle: saline 105 % of control | dose: 100.0 mg/kg/injection, schedule: Q01DX001 (oral), vehicle: saline 86 % of control | dose: 200.0 mg/kg/injection, schedule: Q01DX001 (oral), vehicle: saline 96 % of control

Clc1ccc2nccnc2c1
inactive: [10] 97 % of control | [11] 107 % of control

CN1C2CCC1C(O)C(c1ccccc1)C2 (configuration not stated)
inactive: dose: 10.0 mg/kg/injection, schedule: Q01DX001 (ip), vehicle: saline 106 % of control | dose: 20.0 mg/kg/injection, schedule: Q01DX001 (ip), vehicle: saline 101 % of control | dose: 40.0 mg/kg/injection, schedule: Q01DX001 (ip), vehicle: saline 106 % of control

CN1CC(=O)N=C1N
inactive: [12] 92 % of control | dose: 200.0 mg/kg/injection, schedule: Q01DX001 (ip), vehicle: saline 103 % of control | dose: 200.0 mg/kg/injection, schedule: Q01DX015 (ip), vehicle: saline 91 % of control | dose: 250.0 mg/kg/injection, schedule: Q#A X Z (ip), vehicle: water 109 % of control | dose: 400.0 mg/kg/injection, schedule: Q01DX001 (ip), vehicle: saline 92 % of control | dose: 400.0 mg/kg/injection, schedule: Q01DX015 (ip), vehicle: saline 121 % of control | dose: 500.0 mg/kg/injection, schedule: Q#A X Z (ip), vehicle: water 100 % of control | dose: 800.0 mg/kg/injection, schedule: Q01DX015 (ip), vehicle: saline 94 % of control | dose: 1250.0 mg/kg/injection, schedule: Q#A X Z (ip), vehicle: water 100 % of control | dose: 1600.0 mg/kg/injection, schedule: Q01DX015 (ip), vehicle: saline 100 % of control

[CH3][Sb]([CH3])([CH3])([O]C(=O)CBr)[O]C(=O)CBr
inactive: dose: 12.5 mg/kg/injection, schedule: Q04DX003 (ip), vehicle: saline with Tween-80 102 % of control | dose: 25.0 mg/kg/injection, schedule: Q04DX003 (ip), vehicle: saline with Tween-80 87 % of control | dose: 50.0 mg/kg/injection, schedule: Q04DX003 (ip), vehicle: saline with Tween-80 91 % of control

OCCOc1ccc(Br)cc1
inactive: dose: 100.0 mg/kg/injection, schedule: Q04DX002 (ip), vehicle: Klucel (hydroxypropylcellulose) (HPC) 92 % of control | dose: 200.0 mg/kg/injection, schedule: Q04DX002 (ip), vehicle: Klucel (hydroxypropylcellulose) (HPC) 95 % of control | dose: 400.0 mg/kg/injection, schedule: Q04DX002 (ip), vehicle: Klucel (hydroxypropylcellulose) (HPC) 92 % of control

CN(C)S(=O)(=O)c1ccccc1C1(O)CCCCC1
inactive: dose: 100.0 mg/kg/injection, schedule: Q01DX009 (ip), vehicle: other 87 % of control | [7] 91 % of control | dose: 200.0 mg/kg/injection, schedule: Q01DX009 (ip), vehicle: other 94 % of control | [8] 102 % of control | dose: 400.0 mg/kg/injection, schedule: Q01DX009 (ip), vehicle: other 97 % of control | [9] 109 % of control

CCOc1cc[n+](C)c2ccc(C)cc12
inactive: dose: 6.25 mg/kg/injection, schedule: Q04DX002 (ip), vehicle: saline with Tween-80 102 % of control | dose: 12.5 mg/kg/injection, schedule: Q04DX002 (ip), vehicle: saline with Tween-80 98 % of control
